Source: US20020006942A1, “Methods of treating liver disorders and disorders associated with liver function” (priority 2000, published 2002)
Blank lines part the entries; values can stand above or below the compound they belong to.

How the values were obtained:
[1] = test system: cytokine mRNAs (TNFα, TGF-β1, IL1β) in THP-1 cells; assay: Cytokine mRNA expression by THP-1 cells (RNase protection assay); format: cell-based, human; settings: 100 μM, 48 h
Source text: Hepatic cytokine mRNAs were quantitated using RNase protection assays, as follows. In vitro transcribed [α-^32P]-UTP labeled -antisense cytokine probes were generated using cytokine multi-probe template kits: Mouse mCK-2 (catalog # 45002P) and Mouse mCK-3 (catalog #45003P) (PharMingen International) and a MAXIscript in vitro transcription kit (catalog #1314) using T7 RNA polymerase per manufacturer instructions. The radiolabeled probes were eluted through G25 Sephadex columns (Boehringer Mannheim) to remove unincorporated nucleotides. RNase protection assays were performed with HybSpeed RPA kits (catalog #1412) (Ambion Inc.) according to the manufacturers specifications. For each reaction, 20 fig of total RNA was hybridized to approximately 50,000 cpm of the antisense cytokine probes and digested with a mixture of RNase A and RNase T1. The protected RNA fragments were separated via a 5% denaturing acrylamide gel. PhosporImager (Molecular Dynamics) analysis was used to visualize the protected RNA fragments. […] Cells were harvested and polyA mRNA extracted, as described above. The content of human cytokines mRNAs were quantited by RNase protection assays, as described above except human template kits were used (Human hCK-2-catalog # 45032P and Human hCK-3-catalog # 45033P) (PharMingen International).

[2] = test system: CYP7A1 mRNA expression by rat hepatoma L35 cells; assay: Direct treatment of L35 cells, CYP7A1 mRNA relative to β-actin; format: cell-based
CYP7A1 = settings: bile acid infused; Heuman et al., 1989; cited from earlier work
hepatic CYP7A1 mRNA = assay: Hepatic CYP7A1 mRNA relative to GAPDH in C57BL/6 mice on chow or bile acid-containing atherogenic diet; format: in vivo, mouse; settings: chow-fed mice, 1 mg/ml daily by oral gavage, p=ns
Source text: Female C3H/HeJ and [MUT] mice 10-12 weeks old (Jackson Laboratory, Bar Harbor, Me.) were housed in a room with a normal light cycle (lights on from 0600 to 1800) fed water ad libitum with either normal Purina breeder chow or ground Purina breeder chow supplemented with 20% olive oil, 2% cholesterol and 0.5% taurocholic acid (bile acid-contaning atherogenic diet) and water ad libitum. Mice were maintained on this diet for 3 weeks. After 3 weeks, mice were sacrificed at 0900. […] Mice were sacrificed at 0900 and blood was obtained for subsequent analysis. Livers were extracted for RNA, and polyA RNA was isolated, as described (Dueland, et al., 1993, J. Lipid.Res. 34:923-931; Dueland, et al., 1997, J. Lipid Res. 38:1445-1453). Poly A MRNA was blotted onto nitrocellulose and probed with ^32P-labeled cDNA encoding rat CYP7A1 and GAPDH (Duelandet al., 1993, J. Lipid Res. 34:923-931; Dueland, et al., 1997, J. Lipid Res. 38:1445-1453). The relative abundance of CYP7A1 mRNA to GAPDH mRNA was determined using Phosphorimager quantitation (Molecular Biosystems).

- CYP7A1 expression by L35 cells ([2]; CDCA 100 μM added directly to L35 cells, 24 hours): unaffected
Compound: C[C@H](CCC(=O)O)[C@H]1CC[C@H]2[C@@H]3[C@H](O)C[C@@H]4C[C@H](O)CC[C@]4(C)[C@H]3CC[C@]12C [CDCA, chenodeoxycholic acid]
- induction of TNFα, TGF-β1 and IL1β mRNAs by THP-1 cells [1]: > 10 fold
- ability to repress CYP7A1 (CYP7A1): potent repressor

Compound: C[C@H](CCC(=O)O)[C@H]1CC[C@H]2[C@@H]3[C@@H](O)C[C@@H]4C[C@H](O)CC[C@]4(C)[C@H]3CC[C@]12C [UDCA, ursodeoxycholic acid]
- ability to repress CYP7A1 (CYP7A1): does not repress

Compound: CN(CCOc1ccc(CC2SC(=O)NC2=O)cc1)c1ccccn1 (stereo not drawn) [rosiglitazone]
- decrease in the expression of CYP7A1 (hepatic CYP7A1 mRNA): 30%

- expression of CYP7A1 by L35 cells ([2]; human TNFa alone, 24 h): repressed
Compound: TNFa
